Data taken from patent US6358885B1, “Substituted phenylheterocyclic herbicides” (Mississippi State University, priority 1992, dated 2002).

Legend:
soybean = assay: Test C preemergence/postemergence greenhouse plant response rating 0 to 100; format: in vivo, Glycine max; conditions: POSTEMERGENCE
Method in brief: (§1)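 Compounds in non-phytotoxic solvent went onto sandy loam before emergence (seeded one day earlier) or onto plants at the one-to-four leaf stage. Duck salad was treated via flood water (~2.5 cm, maintained) over silt loam.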

giant foxtail [1] = assay: Test B preemergence/postemergence greenhouse plant response rating 0 to 10; format: in vivo, Setaria faberii; conditions: 0 to 10 scale
Method in brief: (§2)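 Test chemicals were sprayed onto freshly planted seed and, concurrently, onto young plants between the one and four leaf stage. After a twelve- to sixteen-day greenhouse period, each species was visually compared with untreated controls.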

giant foxtail [2] = assay: Test C preemergence/postemergence greenhouse plant response rating 0 to 100; format: in vivo, Setaria faberii; conditions: POSTEMERGENCE
Method in brief: as §1

cotton [3] = assay: Test B preemergence/postemergence greenhouse plant response rating 0 to 10; format: in vivo, Gossypium hirsutum; conditions: 0 to 10 scale
Method in brief: as §2

umbrella sedge = assay: Test C flood test plant response rating 0 to 100; format: in vivo, Cyperus difformis
Method in brief: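 Compounds in non-phytotoxic solvent applied preemergence to sandy loam one day after planting, postemergence at the 1–4 leaf stage, or to ~2.5 cm floodwater over silt loam.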

bedstraw = assay: Test B preemergence/postemergence greenhouse plant response rating 0 to 10; format: in vivo, Galium aparine; conditions: POSTEMERGENCE, 0 to 10 scale
Method in brief: as §2

cocklebur = assay: as above; format: in vivo, Xanthium pensylvanicum; conditions: 0 to 10 scale
Method in brief: as §2

duck salad = assay: Test C flood test plant response rating 0 to 100; format: in vivo, Heteranthera limosa
Method in brief: as §1

velvetleaf = assay: Test C preemergence/postemergence greenhouse plant response rating 0 to 100; format: in vivo, Abutilon theophrasti; conditions: POSTEMERGENCE
Method in brief: as §1

chickweed = assay: as above; format: in vivo, Stellaria media; conditions: POSTEMERGENCE
Method in brief: as §1

rape = assay: Test B preemergence/postemergence greenhouse plant response rating 0 to 10; format: in vivo, Brassica napus; conditions: 0 to 10 scale
Method in brief: as §2

lambsquarters = assay: Test C preemergence/postemergence greenhouse plant response rating 0 to 100; format: in vivo, Chenopodium album; conditions: POSTEMERGENCE
Method in brief: as §1

cheatgrass = assay: Test B preemergence/postemergence greenhouse plant response rating 0 to 10; format: in vivo, Bromus secalinus; conditions: 0 to 10 scale
Method in brief: as §2

morningglory = assay: as above; format: in vivo, Ipomoea hederacea; conditions: 0 to 10 scale
Method in brief: as §2

crabgrass = assay: as above; format: in vivo, Digitaria spp.; conditions: 0 to 10 scale
Method in brief: as §2

pigweed = assay: Test C preemergence/postemergence greenhouse plant response rating 0 to 100; format: in vivo, Amaranthusretroflexus; conditions: POSTEMERGENCE
Method in brief: as §1

barley = assay: as above; format: in vivo, Hordeum vulgare; conditions: POSTEMERGENCE
Method in brief: as §1

cotton [4] = assay: as above; format: in vivo, Gossypium hirsutum; conditions: POSTEMERGENCE
Method in brief: as §1

[5] = POSTEMERGENCE section, flood test, Rate 1 g/ha
[6] = POSTEMERGENCE section, flood test, Rate 4 g/ha
[7] = Rate 16 g/ha, under POSTEMERGENCE head (flood test species)
[8] = flood test species listed under POSTEMERGENCE, 62 g/ha, 0 to 100 scale

C=CCN1C(=O)COc2cc(F)c(-c3nn4c(c3Cl)CCCC4)cc21 [Compound 33]
Plant response rating, Soybean (soybean; 62 g/ha, 0 to 100 scale): 100 | Plant response rating (0 to 100), Soybean (soybean; Rate 1 g/ha): 30 | Plant response rating (0 to 100), Soybean (soybean; Rate 4 g/ha): 40 | Plant response rating (0 to 100), Soybean (soybean; Rate 16 g/ha): 80 | Plant response rating, Giant foxtail (giant foxtail [1]; POSTEMERGENCE, Rate 10 g/ha): 4 | Plant response rating, Giant foxtail (giant foxtail [1]; POSTEMERGENCE, Rate 50 g/ha): 4 | Plant response rating, Giant foxtail (giant foxtail [1]; PREEMERGENCE, Rate 10 g/ha): 2 | Plant response rating, Giant foxtail (giant foxtail [1]; PREEMERGENCE, Rate 50 g/ha): 7 | Plant response rating, Giant foxtail (giant foxtail [2]; 62 g/ha, 0 to 100 scale): 70 | Plant response rating (0 to 100), Giant foxtail (giant foxtail [2]; Rate 1 g/ha): 0 | Plant response rating (0 to 100), Giant foxtail (giant foxtail [2]; Rate 4 g/ha): 0 | Plant response rating (0 to 100), Giant foxtail (giant foxtail [2]; Rate 16 g/ha): 20 | Plant response rating, Cotton (cotton [3]; POSTEMERGENCE, Rate 10 g/ha): 10 | Plant response rating, Cotton (cotton [3]; POSTEMERGENCE, Rate 50 g/ha): 10 | Plant response rating, Cotton (cotton [3]; PREEMERGENCE, Rate 10 g/ha): 0 | Plant response rating, Cotton (cotton [3]; PREEMERGENCE, Rate 50 g/ha): 0 | Plant response rating (0 to 100), Umbrella sedge (umbrella sedge; [5]): 10 | Plant response rating (0 to 100), Umbrella sedge (umbrella sedge; [6]): 20 | Plant response rating (0 to 100), Umbrella sedge (umbrella sedge; [7]): 70 | Plant response rating Umbrella sedge (umbrella sedge; [8]): 80 | Plant response rating, Bedstraw (bedstraw; Rate 10 g/ha): 8 | Plant response rating, Bedstraw (bedstraw; Rate 50 g/ha): 9 | Plant response rating, Cocklebur (cocklebur; POSTEMERGENCE, Rate 10 g/ha): 10 | Plant response rating, Cocklebur (cocklebur; POSTEMERGENCE, Rate 50 g/ha): 10 | Plant response rating, Cocklebur (cocklebur; PREEMERGENCE, Rate 10 g/ha): 0 | Plant response rating, Cocklebur (cocklebur; PREEMERGENCE, Rate 50 g/ha): 5 | Plant response rating (0 to 100), Duck salad (duck salad; [5]): 0 | Plant response rating (0 to 100), Duck salad (duck salad; [6]): 0 | Plant response rating (0 to 100), Duck salad (duck salad; [7]): 65 | Plant response rating Duck salad (duck salad; [8]): 80 | Plant response rating, Velvetleaf (velvetleaf; 62 g/ha, 0 to 100 scale): 100 | Plant response rating (0 to 100), Velvetleaf (velvetleaf; Rate 1 g/ha): 70 | Plant response rating (0 to 100), Velvetleaf (velvetleaf; Rate 4 g/ha): 100 | Plant response rating (0 to 100), Velvetleaf (velvetleaf; Rate 16 g/ha): 100 | Plant response rating, Chickweed (chickweed; 62 g/ha, 0 to 100 scale): 100 | Plant response rating (0 to 100), Chickweed (chickweed; Rate 1 g/ha): 40 | Plant response rating (0 to 100), Chickweed (chickweed; Rate 4 g/ha): 60 | Plant response rating (0 to 100), Chickweed (chickweed; Rate 16 g/ha): 85 | Plant response rating, Rape (rape; POSTEMERGENCE, Rate 10 g/ha): 10 | Plant response rating, Rape (rape; POSTEMERGENCE, Rate 50 g/ha): 10 | Plant response rating, Rape (rape; PREEMERGENCE, Rate 50 g/ha): 5 | Plant response rating Lambsquarters (lambsquarters; 62 g/ha, 0 to 100 scale): 100 | Plant response rating (0 to 100), Lambsquarters (lambsquarters; Rate 1 g/ha): 50 | Plant response rating (0 to 100), Lambsquarters (lambsquarters; Rate 4 g/ha): 70 | Plant response rating (0 to 100), Lambsquarters (lambsquarters; Rate 16 g/ha): 80 | Plant response rating, Cheatgrass (cheatgrass; POSTEMERGENCE, Rate 10 g/ha): 4 | Plant response rating, Cheatgrass (cheatgrass; POSTEMERGENCE, Rate 50 g/ha): 4 | Plant response rating, Cheatgrass (cheatgrass; PREEMERGENCE, Rate 10 g/ha): 3 | Plant response rating, Cheatgrass (cheatgrass; PREEMERGENCE, Rate 50 g/ha): 6 | Plant response rating, Morningglory (morningglory; POSTEMERGENCE, Rate 10 g/ha): 9 | Plant response rating, Morningglory (morningglory; POSTEMERGENCE, Rate 50 g/ha): 10 | Plant response rating, Morningglory (morningglory; PREEMERGENCE, Rate 50 g/ha): 10 | Plant response rating, Crabgrass (crabgrass; POSTEMERGENCE, Rate 10 g/ha): 3 | Plant response rating, Crabgrass (crabgrass; POSTEMERGENCE, Rate 50 g/ha): 5 | Plant response rating, Crabgrass (crabgrass; PREEMERGENCE, Rate 10 g/ha): 2 | Plant response rating, Crabgrass (crabgrass; PREEMERGENCE, Rate 50 g/ha): 6 | Plant response rating Pigweed (pigweed; 62 g/ha, 0 to 100 scale): 100 | Plant response rating (0 to 100), Pigweed (pigweed; Rate 1 g/ha): 100 | Plant response rating (0 to 100), Pigweed (pigweed; Rate 4 g/ha): 100 | Plant response rating (0 to 100), Pigweed (pigweed; Rate 16 g/ha): 100 | Plant response rating Barley Igri (barley; 62 g/ha, 0 to 100 scale): 60 | Plant response rating (0 to 100), Barley Igri (barley; Rate 1 g/ha): 20 | Plant response rating (0 to 100), Barley Igri (barley; Rate 4 g/ha): 40 | Plant response rating (0 to 100), Barley Igri (barley; Rate 16 g/ha): 50 | Plant response rating, Cotton (cotton [4]; 62 g/ha, 0 to 100 scale): 100 | Plant response rating (0 to 100), Cotton (cotton [4]; Rate 1 g/ha): 100 | Plant response rating (0 to 100), Cotton (cotton [4]; Rate 4 g/ha): 100 | Plant response rating (0 to 100), Cotton (cotton [4]; Rate 16 g/ha): 100
